This note sets out measurements from ChEMBL document CHEMBL1201862, “PubChem BioAssay data set” (2004).

The nature of test [1]: AlphaScreen signal interference compounds, dose response, artefact control for ARNT-TACC3 interaction inhibitor project, biochemical, luminescence, cherry-pick (AID 651705).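 Note: AlphaScreen bead proximity signal that flags compounds interfering with the detection technology; potency reflects signal decrease which marks the compound as an assay artifact.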 Type of test: functional.
Test [2] relates to BJ. The test is described as follows: cells. It is filed as functional, cell-based. The settings on record: Homo sapiens.
Test [3] is described as follows: inhibitors of firefly luciferase expression or activity, dose response, H4 neuroglioma cells, luminescence (AID 1990). It is filed as functional, cell-based.
Test [4] in a line: cytotoxicity toward DRD oncogenic fibroblasts, dose response, cell-based, non-viral oncogenic, luminescence (AID 1934). The settings on record: Homo sapiens. Type of test: functional.
Test [5] is described as follows: inhibitors of SNCA 5'UTR-driven reporter translation, confirmation, H4 neuroglioma cells, luminescence (AID 1988). Type of test: functional, cell-based.
Test [6] has as its target T1, Short transient receptor potential channel 4 (Mus musculus, UniProt Q9QUQ5).
T1 sequence (Q9QUQ5 whole entry): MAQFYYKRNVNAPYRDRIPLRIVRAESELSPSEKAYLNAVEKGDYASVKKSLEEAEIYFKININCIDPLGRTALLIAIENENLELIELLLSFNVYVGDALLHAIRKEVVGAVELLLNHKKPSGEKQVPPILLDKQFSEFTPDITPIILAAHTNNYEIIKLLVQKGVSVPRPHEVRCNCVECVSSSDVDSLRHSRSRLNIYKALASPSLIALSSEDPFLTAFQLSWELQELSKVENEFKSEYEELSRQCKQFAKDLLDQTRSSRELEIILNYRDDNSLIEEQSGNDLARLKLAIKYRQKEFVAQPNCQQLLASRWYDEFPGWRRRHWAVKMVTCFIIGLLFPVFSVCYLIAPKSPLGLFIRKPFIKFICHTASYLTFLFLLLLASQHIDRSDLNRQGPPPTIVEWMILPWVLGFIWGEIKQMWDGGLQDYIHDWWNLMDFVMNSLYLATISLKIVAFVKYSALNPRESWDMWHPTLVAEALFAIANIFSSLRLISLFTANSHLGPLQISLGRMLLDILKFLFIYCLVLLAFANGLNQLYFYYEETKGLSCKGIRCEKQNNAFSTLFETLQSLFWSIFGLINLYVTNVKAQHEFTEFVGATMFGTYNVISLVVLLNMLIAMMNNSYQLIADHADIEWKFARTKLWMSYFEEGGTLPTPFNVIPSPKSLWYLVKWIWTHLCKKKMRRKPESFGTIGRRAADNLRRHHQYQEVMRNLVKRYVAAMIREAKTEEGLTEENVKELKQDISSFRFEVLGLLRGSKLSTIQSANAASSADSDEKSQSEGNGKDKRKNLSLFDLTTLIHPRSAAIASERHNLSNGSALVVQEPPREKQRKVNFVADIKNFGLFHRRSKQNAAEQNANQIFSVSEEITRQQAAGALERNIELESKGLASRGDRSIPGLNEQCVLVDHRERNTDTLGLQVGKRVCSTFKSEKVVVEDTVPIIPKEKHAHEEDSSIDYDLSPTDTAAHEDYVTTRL
The test is described as follows: mouse TRPC4 channel inhibitors, dose response, cell-based, HEK293 TRPC4/mu-opioid, Fluo-4 calcium (AID 434942).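 Note: potency of inhibitors blocking the TRPC4 calcium response.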 Type of test: functional.

Test [7] deals with BJ. The test is described as follows: cytotoxicity toward BJ-TERT-LT-ST fibroblasts, dose response, cell-based, RAS-independent, luminescence (AID 1935).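 Note: BJ fibroblasts immortalized with TERT plus LT and ST oncogenes.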 It is filed as functional. The settings on record: Homo sapiens.
Test [8] in a line: Luminescence Cell-Based Dose Response HTS to Identify Inhibitors of 5'UTR Stem-Loop Driven Prion Protein mRNA Translation in H4 Neuroglioblastoma Cells. [Related pubchem assays: 1827 (Project Summary), 1813 (Primary HTS)]. Type of test: functional.
Test [9] deals with BJ. The test is described as follows: cytotoxicity toward BJ-TERT fibroblasts, dose response, cell-based, RAS-independent, luminescence (AID 1933). It is filed as functional. The settings on record: Homo sapiens.
The subject of test [10] is BJ. Description: cytotoxicity toward Ras-transformed BJeLR fibroblasts, dose response, cell-based, alamar blue fluorescence, cherrypicked samples (AID 2631).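 Note: confirmatory dose-response assay in RAS-dependent BJ fibroblasts engineered with TERT, LT and ST, with cytotoxicity read by fluorescence.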 The settings on record: Homo sapiens. It is filed as functional. (In general: Resazurin is reduced to fluorescent resorufin, in cell work by metabolically active cells.)
Test [11] has as its target T2, Microphthalmia-associated transcription factor (Homo sapiens, UniProt O75030).
T2 sequence (O75030 whole entry): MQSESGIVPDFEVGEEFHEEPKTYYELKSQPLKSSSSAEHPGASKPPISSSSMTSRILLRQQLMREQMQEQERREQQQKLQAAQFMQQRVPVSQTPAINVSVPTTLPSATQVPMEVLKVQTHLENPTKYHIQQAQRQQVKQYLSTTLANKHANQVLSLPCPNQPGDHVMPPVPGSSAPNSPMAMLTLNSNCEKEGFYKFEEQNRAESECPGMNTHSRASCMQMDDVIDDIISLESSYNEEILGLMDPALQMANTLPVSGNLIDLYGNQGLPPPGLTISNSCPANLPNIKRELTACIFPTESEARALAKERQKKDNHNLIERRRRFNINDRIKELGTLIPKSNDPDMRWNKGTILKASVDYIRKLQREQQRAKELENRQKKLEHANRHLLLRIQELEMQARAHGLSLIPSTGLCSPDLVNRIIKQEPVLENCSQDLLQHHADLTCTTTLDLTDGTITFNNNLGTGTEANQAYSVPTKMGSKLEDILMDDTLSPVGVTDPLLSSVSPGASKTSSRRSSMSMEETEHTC
Description: TRPM1 promoter luciferase signal decrease, dose response, MITF inhibitor project, cell-based, SK-MEL-5, cherry-picked, set 3 (AID 493073).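 Note: SK-MEL-5 melanoma cells with luciferase driven by the MITF target TRPM1 promoter.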 It is filed as functional.

Test [12] addresses Melanocortin receptor 4 (Homo sapiens, UniProt P32245). It is filed as functional, cell-based.
In test [13] the target is T3, Ubiquitin-conjugating enzyme E2 N (Homo sapiens, UniProt P61088).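 Note: Dose-response confirmation in a TR-FRET assay detecting UBC13-driven polyubiquitin chain formation, inhibition measured.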
T3 sequence (P61088 whole entry): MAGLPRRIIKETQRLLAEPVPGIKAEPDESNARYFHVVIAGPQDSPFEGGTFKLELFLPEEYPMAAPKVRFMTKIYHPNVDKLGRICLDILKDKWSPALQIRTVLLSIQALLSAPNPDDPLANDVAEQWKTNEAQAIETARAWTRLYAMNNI
Type of test: functional.

In test [14] the test system is A-375. The test is described as follows: MITF: Counter assay: A375 proliferation Measured in Cell-Based System Using Plate Reader - 2084-03_Inhibitor_Dose_DryPowder_Activity. [Related pubchem assays (depositor defined):AID488944]. Type of test: functional. The settings on record: Homo sapiens.
The nature of test [15]: CRF-BP/CRF-R2 complex antagonists, dose response, cell-based, uHTS hits, 384-well (AID 651639). It is filed as functional, Homo sapiens. The settings on record: read-out: IC50_Mean.
Test [16] has as its target T4, Corticotropin-releasing factor receptor 2/Corticotropin-releasing factor-binding protein (Homo sapiens, UniProt P24387+Q13324).
T4 sequence (Q13324 whole entry): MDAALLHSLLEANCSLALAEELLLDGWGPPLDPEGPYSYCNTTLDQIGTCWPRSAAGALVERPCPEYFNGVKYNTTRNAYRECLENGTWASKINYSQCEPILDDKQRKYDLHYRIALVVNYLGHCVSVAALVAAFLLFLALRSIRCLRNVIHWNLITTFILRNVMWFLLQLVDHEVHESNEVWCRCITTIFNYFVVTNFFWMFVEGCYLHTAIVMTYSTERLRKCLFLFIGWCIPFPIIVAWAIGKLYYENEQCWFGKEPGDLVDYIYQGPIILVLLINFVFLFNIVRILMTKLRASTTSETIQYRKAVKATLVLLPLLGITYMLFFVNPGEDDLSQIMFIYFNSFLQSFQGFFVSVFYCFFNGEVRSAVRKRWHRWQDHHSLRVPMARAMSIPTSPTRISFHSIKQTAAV
T4 sequence (P24387 whole entry): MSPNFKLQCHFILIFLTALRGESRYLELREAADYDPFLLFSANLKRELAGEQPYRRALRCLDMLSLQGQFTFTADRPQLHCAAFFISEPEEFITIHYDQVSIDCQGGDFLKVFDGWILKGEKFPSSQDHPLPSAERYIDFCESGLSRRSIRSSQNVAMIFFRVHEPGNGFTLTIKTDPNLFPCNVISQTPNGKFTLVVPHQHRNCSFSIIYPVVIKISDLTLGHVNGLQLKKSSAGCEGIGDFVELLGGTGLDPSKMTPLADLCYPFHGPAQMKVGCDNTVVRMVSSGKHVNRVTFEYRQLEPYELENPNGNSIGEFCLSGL
Description: activators of CRF receptor 2 with binding protein – uHTS hits, confirmation (AID 602473). Type of test: functional. The settings on record: read-out: EC50_Mean.

In test [17] the target is T4, Corticotropin-releasing factor receptor 2/Corticotropin-releasing factor-binding protein. The test is described as follows: Dose Response confirmation of uHTS hits for small molecule antagonists of the CRF-binding protein and CRF-R2 receptor complex. Type of test: functional. The settings on record: read-out: IC50_Mean.
In test [18] the target is Cytochrome P450 3A4 (Homo sapiens, UniProt P08684). The settings on record: Potency.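 Note: confirmatory qHTS run detecting inhibitors and substrates of CYP3A4.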
Test [19] in a line: cytotoxicity in HEK-293T cells, dose response, cytotoxicity control for TCR NF-kB inhibitor project, luminescence, T-cell screen hits (AID 489026).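 Note: cells exposed to compound about 14 hours before the viability readout.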 Type of test: functional, cell-based.
The target in test [20] is Ras and Rab interactor 1/Tyrosine-protein kinase ABL1 (Homo sapiens, UniProt P00519+Q13671). Type of test: functional.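 Note: biochemical TR-FRET dose-response test measuring inhibition of binding between Rin1 and Abl proteins.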
The target of test [21] is Dual specificity protein phosphatase 3 (Homo sapiens, UniProt P51452). Description: VHR phosphatase inhibition, dose response, selectivity assay for STEP inhibitor project, biochemical (AID 602374). Type of test: functional. The settings on record: read-out: IC50_Mean.
In test [22] the target is Cytochrome P450 2D6 (Homo sapiens, UniProt P10635).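 Note: CYP2D6 member of a cytochrome P450 panel assay.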
In test [23] the target is Tyrosine-protein phosphatase non-receptor type 11 (Homo sapiens, UniProt Q06124). The test is described as follows: SHP2 phosphatase inhibition, dose response, selectivity assay for STEP inhibitor project, biochemical (AID 602367). It is filed as functional. Conditions: read-out: IC50_Mean.
Test [24] addresses Tyrosine-protein phosphatase non-receptor type 5 (Homo sapiens, UniProt P54829). Description: STEP phosphatase inhibitors, confirmation, biochemical, fluorescence intensity, uHTS hits (AID 602372). Type of test: functional. Conditions: read-out: IC50_Mean.

Active and inactive are the calls of the source.

Sequence of Ras and Rab interactor 1/Tyrosine-protein kinase ABL1 (P00519 whole entry): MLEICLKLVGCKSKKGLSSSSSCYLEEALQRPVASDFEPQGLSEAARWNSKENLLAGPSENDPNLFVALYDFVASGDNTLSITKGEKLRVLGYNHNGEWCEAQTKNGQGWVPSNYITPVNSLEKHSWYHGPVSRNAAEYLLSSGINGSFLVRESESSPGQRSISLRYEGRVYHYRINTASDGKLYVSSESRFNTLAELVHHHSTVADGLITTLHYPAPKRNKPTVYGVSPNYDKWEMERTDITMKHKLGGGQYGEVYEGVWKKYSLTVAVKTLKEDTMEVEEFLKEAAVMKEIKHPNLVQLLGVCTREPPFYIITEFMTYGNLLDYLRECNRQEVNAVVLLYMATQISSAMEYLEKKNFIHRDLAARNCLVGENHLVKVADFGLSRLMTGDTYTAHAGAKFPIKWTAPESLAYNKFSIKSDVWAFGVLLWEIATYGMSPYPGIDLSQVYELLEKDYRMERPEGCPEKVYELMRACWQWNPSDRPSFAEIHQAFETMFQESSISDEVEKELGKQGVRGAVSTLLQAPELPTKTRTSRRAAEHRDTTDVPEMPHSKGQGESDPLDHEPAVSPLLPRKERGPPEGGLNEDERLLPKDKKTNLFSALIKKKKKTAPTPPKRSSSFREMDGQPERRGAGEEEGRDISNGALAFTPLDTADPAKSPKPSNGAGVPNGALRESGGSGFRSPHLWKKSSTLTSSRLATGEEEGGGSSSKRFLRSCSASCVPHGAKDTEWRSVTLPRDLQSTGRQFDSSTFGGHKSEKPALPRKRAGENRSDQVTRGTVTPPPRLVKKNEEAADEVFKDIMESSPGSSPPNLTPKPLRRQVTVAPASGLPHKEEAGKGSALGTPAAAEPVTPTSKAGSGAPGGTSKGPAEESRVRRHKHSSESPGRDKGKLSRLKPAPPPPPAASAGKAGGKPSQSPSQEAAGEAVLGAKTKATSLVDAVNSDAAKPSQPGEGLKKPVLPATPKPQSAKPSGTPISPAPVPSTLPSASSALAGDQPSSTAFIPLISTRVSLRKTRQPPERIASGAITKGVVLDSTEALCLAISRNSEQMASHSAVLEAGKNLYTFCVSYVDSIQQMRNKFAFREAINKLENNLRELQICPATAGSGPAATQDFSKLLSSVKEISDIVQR
Sequence of Ras and Rab interactor 1/Tyrosine-protein kinase ABL1 (Q13671 whole entry): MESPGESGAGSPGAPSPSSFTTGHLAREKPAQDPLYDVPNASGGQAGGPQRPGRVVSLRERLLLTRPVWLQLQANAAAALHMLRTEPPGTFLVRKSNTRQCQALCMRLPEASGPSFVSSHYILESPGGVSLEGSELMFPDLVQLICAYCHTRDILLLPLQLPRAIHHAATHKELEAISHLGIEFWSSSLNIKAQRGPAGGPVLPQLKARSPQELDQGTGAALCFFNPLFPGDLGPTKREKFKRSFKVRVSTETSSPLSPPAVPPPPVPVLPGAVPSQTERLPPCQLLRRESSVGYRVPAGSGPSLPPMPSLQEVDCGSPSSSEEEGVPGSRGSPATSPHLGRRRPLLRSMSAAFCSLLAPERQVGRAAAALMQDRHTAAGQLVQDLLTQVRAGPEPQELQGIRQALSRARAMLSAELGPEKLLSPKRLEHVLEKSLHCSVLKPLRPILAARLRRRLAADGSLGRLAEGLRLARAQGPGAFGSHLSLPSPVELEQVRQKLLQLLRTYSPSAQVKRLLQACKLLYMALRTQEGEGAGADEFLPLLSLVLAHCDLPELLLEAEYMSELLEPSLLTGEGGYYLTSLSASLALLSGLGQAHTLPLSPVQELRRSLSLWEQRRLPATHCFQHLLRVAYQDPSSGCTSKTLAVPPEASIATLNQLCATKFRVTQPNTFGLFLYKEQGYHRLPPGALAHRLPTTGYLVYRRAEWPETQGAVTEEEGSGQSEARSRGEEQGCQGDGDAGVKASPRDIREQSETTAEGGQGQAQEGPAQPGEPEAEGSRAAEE
Sequence of Melanocortin receptor 4 (P32245 whole entry): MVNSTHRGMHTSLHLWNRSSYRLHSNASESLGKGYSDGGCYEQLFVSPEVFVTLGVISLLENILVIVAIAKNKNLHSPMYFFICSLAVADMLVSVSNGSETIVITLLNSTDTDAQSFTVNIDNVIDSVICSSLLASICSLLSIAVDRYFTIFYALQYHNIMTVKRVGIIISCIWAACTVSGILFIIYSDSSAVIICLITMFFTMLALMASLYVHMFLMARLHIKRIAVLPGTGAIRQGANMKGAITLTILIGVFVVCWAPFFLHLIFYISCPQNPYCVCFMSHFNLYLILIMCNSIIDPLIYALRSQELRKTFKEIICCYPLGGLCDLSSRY
Sequence of Cytochrome P450 3A4 (P08684 whole entry): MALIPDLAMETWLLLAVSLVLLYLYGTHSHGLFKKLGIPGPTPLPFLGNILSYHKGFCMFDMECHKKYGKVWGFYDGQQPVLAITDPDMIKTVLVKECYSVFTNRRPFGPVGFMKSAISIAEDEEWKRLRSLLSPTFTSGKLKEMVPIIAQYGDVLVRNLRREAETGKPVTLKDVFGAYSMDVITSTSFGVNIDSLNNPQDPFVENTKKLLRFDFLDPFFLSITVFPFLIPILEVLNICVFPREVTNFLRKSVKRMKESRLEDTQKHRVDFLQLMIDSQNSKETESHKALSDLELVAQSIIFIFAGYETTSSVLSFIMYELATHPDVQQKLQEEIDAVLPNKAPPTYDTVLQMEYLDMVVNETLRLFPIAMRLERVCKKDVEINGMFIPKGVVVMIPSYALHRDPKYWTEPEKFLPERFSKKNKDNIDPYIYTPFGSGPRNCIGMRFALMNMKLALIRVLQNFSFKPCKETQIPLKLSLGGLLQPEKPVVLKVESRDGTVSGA
Sequence of Cytochrome P450 2D6 (P10635 whole entry): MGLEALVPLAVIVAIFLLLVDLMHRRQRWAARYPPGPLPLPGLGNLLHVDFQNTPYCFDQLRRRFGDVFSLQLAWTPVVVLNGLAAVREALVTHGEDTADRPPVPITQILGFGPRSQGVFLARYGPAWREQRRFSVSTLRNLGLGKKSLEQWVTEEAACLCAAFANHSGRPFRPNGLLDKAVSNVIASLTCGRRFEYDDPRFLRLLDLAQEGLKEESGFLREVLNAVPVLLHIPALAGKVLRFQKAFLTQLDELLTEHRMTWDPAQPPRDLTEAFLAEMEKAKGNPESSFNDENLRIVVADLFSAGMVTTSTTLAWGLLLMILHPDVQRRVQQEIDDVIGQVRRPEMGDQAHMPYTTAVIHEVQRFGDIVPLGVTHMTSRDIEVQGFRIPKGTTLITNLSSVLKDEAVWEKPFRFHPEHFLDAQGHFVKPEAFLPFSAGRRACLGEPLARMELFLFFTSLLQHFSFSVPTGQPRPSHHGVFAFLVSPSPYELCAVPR
Sequence of Dual specificity protein phosphatase 3 (P51452 whole entry): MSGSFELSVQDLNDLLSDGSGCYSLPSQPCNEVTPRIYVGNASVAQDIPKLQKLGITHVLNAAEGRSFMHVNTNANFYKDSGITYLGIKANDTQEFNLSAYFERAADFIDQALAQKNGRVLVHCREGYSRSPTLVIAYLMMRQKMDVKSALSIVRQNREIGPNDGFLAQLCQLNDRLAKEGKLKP
Sequence of Tyrosine-protein phosphatase non-receptor type 11 (Q06124 whole entry): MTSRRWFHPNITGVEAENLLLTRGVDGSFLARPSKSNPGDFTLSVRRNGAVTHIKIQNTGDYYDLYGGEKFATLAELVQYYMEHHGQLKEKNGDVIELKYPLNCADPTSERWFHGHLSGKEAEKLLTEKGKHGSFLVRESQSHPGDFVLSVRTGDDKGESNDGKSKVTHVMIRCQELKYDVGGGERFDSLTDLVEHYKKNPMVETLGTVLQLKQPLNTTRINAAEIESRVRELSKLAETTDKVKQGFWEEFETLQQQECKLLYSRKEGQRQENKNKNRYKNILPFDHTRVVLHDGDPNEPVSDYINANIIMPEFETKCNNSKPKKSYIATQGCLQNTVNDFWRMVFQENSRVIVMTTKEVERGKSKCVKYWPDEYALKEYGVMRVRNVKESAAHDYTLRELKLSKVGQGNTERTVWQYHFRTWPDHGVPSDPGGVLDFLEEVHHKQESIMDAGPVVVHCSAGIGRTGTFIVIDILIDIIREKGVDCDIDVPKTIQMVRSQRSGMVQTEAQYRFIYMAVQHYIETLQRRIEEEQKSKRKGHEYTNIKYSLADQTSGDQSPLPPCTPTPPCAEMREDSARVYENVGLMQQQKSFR
Sequence of Tyrosine-protein phosphatase non-receptor type 5 (P54829 whole entry): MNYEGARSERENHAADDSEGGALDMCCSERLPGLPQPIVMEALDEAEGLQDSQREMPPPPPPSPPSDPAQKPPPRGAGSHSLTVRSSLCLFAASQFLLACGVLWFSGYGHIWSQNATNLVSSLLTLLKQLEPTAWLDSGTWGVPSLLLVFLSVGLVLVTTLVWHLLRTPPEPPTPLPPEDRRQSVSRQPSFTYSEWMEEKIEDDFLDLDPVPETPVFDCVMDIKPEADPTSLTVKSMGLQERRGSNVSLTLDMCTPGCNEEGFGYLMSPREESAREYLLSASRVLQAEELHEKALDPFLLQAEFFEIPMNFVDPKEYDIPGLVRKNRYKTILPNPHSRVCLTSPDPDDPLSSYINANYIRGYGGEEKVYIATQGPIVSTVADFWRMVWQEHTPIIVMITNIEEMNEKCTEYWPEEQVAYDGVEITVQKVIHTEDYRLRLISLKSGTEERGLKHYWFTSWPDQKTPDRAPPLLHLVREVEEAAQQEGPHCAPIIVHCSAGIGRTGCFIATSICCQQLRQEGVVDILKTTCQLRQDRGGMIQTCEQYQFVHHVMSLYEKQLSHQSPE

What is called AC50 is the midpoint of the concentration-response curve, whichever way the signal moves. Regarding `NNc1ccc(S(=O)(=O)N2CCCCC2)cn1`, the AC50 in [1] is 87.7 µM (active).
Regarding `COc1ccc2c(c1)sc(N)[n+]2Cc1cc(C)cc2cccnc12`, the EC50 was 1.55 µM (inconclusive) in test [2]; 7.07 µM (inconclusive) in test [3]; 1.61 µM (active) in [4]; 0.2 µM (active) in [5]; 1.33 µM (active) in test [6]; 1.5 µM (inconclusive) in test [7]. Further, the EC50 in test [8] was 8.01 µM (active); in test [9], 1.98 µM (active); in test [10], 0.605 µM (active).
`CCCCCCCNC(=O)C1(CC2CC(c3ccc(Cl)cc3)=NO2)CCNCC1` (stereo not drawn): the AC50 in test [11] was 14 µM (active); in test [14] it was 19.9 µM (active). Moreover, the EC50 in test [12] was > 89.2 µM (inactive). Moreover, the IC50 in test [13] was > 20 µM (inactive).
Consider `Cc1ccc(N(C(=O)c2nsc(Cl)c2Cl)C(C(=O)NC2CCCC2)c2ccc(O)cc2)cc1C` (stereo not drawn), for which the results for the IC50 in test [15] and in test [17] were > 20 µM (inactive) and 5.91 µM (active), respectively. The EC50 in test [16] was > 53 µM (inactive).
Turning to `Oc1cc(Cl)c(Cl)c(Cl)c1`, the IC50 in test [15] is > 20 µM (inactive); in test [17], 9.09 µM (active). Also, the EC50 in test [16] is > 53 µM (inactive). Also, the AC50 in [18] is 12.6 µM (inconclusive).
Take `O=C(N/N=C/c1ccccc1Cl)c1[nH]c2ccc(Br)cc2c1-c1ccccc1`: the EC50 is 27.5 µM (active) in test [2]; 0.304 µM (active) in test [3]; 0.615 µM (active) in [4]; 0.163 µM (active) in test [5]; 0.748 µM (inconclusive) in test [7]; 0.136 µM (active) in test [8]. Moreover, the results for the EC50 in test [9] and in test [10] were 0.608 µM (active) and 0.2 µM (active), respectively. In addition, in [19], the IC50 was > 80 µM (inactive).
Consider `COc1cccc(-c2cnc3c(NC=O)cc(-c4ccoc4)cn23)c1`, for which the EC50 in test [12] is > 89.2 µM (inactive).
With `COc1ccc(Cl)cc1NC(=O)CN(C)C(=O)c1cc(-c2ccncc2)nc2ccccc12`, the IC50 in test [20] is 1.86 µM (active).
In the case of `O=C(Cc1ccc(NC(=O)C2CCN(C(=O)C3CCC3)CC2)cc1)Nc1ccc(C(=O)N2CCOCC2)cc1`, the IC50 in test [20] was 16.5 µM (inactive).
Consider `OCCN1CCN(C(=S)c2ccc(Br)cc2)CC1`, for which the figures for the IC50 in test [21], in test [23] and in [24] were 1.3 µM (active), 3.34 µM (active) and 20.1 µM (inactive), respectively. Besides, in test [22], the AC50 is 0.0224 µM (inconclusive).
With `Cc1nnc(NC(=O)c2ccc(S(=O)(=O)N3CC(C)OC(C)C3)cc2)o1` (stereo not drawn), the AC50 in test [1] is 122 µM (active).
